# Laboratory results taken from ChEMBL document CHEMBL4431312, “Development of an Orally Available and Central Nervous System (CNS) Penetrant Toxoplasma gondii Calcium-Dependent Protein Kinase 1 (TgCDPK1) Inhibitor with Minimal Human Ether-a-go-go-Related Gene (hERG) Activity for the Treatment of Toxoplasmosis” (J Med Chem, 2016).
# Experiments:
# [1] = in vivo; settings: BALB/c, mouse, plasma, po, 10 mg/kg
# [2] = mouse, in vivo, po, 10 mg/kg
# [3] = molecular target: Voltage-gated inwardly rectifying potassium channel KCNH2 (Homo sapiens, UniProt Q12809)
# Sequence of Voltage-gated inwardly rectifying potassium channel KCNH2 (Q12809 whole entry): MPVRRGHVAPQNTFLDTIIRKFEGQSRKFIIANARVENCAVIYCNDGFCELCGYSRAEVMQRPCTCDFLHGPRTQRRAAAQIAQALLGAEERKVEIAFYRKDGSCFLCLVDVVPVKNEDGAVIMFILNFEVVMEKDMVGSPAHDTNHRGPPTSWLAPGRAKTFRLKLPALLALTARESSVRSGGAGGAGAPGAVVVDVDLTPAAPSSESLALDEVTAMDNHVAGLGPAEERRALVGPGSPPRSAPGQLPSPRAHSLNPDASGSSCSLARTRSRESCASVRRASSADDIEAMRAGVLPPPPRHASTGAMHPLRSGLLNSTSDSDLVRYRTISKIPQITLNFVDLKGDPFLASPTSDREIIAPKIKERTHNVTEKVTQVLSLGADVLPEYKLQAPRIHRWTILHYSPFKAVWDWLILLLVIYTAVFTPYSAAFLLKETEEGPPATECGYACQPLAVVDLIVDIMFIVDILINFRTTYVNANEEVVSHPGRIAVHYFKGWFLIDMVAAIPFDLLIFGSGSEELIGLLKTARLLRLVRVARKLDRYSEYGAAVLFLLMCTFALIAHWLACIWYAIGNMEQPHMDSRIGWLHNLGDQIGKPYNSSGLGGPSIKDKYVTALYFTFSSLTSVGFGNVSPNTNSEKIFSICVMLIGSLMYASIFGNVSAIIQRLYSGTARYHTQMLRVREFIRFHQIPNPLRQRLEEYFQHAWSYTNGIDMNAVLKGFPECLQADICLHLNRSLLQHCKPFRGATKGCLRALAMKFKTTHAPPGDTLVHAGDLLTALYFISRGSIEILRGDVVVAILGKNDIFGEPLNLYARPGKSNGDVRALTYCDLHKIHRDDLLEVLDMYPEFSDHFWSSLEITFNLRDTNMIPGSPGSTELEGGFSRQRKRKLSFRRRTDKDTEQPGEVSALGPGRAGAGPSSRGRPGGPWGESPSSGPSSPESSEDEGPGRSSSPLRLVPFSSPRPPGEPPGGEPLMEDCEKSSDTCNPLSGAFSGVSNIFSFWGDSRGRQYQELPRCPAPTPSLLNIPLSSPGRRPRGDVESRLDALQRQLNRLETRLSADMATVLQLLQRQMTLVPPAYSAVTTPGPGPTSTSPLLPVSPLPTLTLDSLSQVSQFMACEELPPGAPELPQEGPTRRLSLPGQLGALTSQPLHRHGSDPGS
# [4] = in vitro; settings: human, HepG2 cells
# [5] = in vitro; settings: human, CRL8155 cells
# [6] = molecular target: Proto-oncogene tyrosine-protein kinase Src (Gallus gallus, UniProt P00523)
# [7] = in vivo; settings: BALB/c, mouse, plasma, po, 10 mg/kg; remark: listed apart in the source
# [8] = buffer, pH 6.5
# [9] = in vivo; settings: BALB/c, mouse, plasma, po, 10 mg/kg; remark: listed apart in the source
# [10] = in vivo; settings: BALB/c, mouse, plasma, po, 10 mg/kg; remark: listed apart in the source
# [11] = molecular target: T1, Calmodulin-domain protein kinase 1 (Toxoplasma gondii, UniProt Q9BJF5)
# T1 sequence (Q9BJF5 whole entry): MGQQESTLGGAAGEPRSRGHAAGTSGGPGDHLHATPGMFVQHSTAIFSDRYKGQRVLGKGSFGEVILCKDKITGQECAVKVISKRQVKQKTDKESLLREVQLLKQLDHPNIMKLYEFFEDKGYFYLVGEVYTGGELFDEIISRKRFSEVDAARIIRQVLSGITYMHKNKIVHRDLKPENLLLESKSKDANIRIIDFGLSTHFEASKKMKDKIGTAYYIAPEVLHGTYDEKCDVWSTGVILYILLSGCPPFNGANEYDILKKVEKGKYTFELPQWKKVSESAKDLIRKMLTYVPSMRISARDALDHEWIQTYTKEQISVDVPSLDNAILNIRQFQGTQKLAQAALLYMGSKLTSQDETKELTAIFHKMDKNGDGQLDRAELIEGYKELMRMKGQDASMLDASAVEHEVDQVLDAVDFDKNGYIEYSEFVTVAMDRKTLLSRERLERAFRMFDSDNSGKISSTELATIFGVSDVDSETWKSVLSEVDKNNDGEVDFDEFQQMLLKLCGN
# [12] = in vivo; settings: BALB/c, mouse, plasma, po, 10 mg/kg; remark: listed apart in the source
# [13] = system: Toxoplasma gondii; test: microbe, parasite or virus in culture; settings: 44 h
# [14] = mouse, in vivo, po, 10 mg/kg; remark: listed apart in the source
Compound,GI50 at 48 h [4] [µM],GI50 at 48 h [5] [µM],IC50 [6] [µM],Tmax [1] [h],Cmax [2] [nM],IC50 [3] [µM],CL/F [7] [mL/min],solubility [8] [µM],AUC(0-inf) [9] [µM·h],Cmax [10] [nM],IC50 [11] [µM],half-life [12] [h],EC50 [13] [µM],Tmax [14] [h]
CCOc1ccc2cc(-c3nn(CC4CCN(C)CC4)c4ncnc(N)c34)ccc2c1,> 10,> 10,> 10,2,750,0.4,0.7,–,–,–,–,–,–,–
CCOc1ccc2cc(-c3nn(CC4CCN(C(C)=O)CC4)c4ncnc(N)c34)ccc2c1,> 10,> 10,> 10,–,–,> 10,2.5,48,1.57,890,–,–,–,–
CC1(Cn2nc(-c3ccc4cc(OC5CC5)ccc4c3)c3c(N)ncnc32)COC1,> 10,> 10,> 10,–,–,1.9,–,–,–,–,0.0021,–,–,–
CC(C)(CO)Cn1nc(-c2ccc3nc(OCC(F)(F)F)ccc3c2)c2c(N)ncnc21,> 10,> 10,> 10,–,–,–,–,–,–,–,0.017,–,–,–
CN1CCC(Cn2nc(-c3ccc4cc(OC5CCC5)ccc4c3)c3c(N)ncnc32)CC1,> 10,> 10,> 10,–,–,0.2,–,–,–,–,–,–,–,–
CCOc1ccc2cc(-c3nn(CC(C)(C)O)c4ncnc(N)c34)ccc2n1,> 10,> 10,> 10,–,–,> 10,0.2,–,–,–,–,–,–,–
CN1CCC(Cn2nc(-c3ccc4nc(OCC(F)(F)F)ccc4c3)c3c(N)ncnc32)CC1,–,–,–,–,–,0.5,–,–,–,–,–,–,–,–
COCCOc1ccc2cc(-c3nn(CC4CCN(C)CC4)c4ncnc(N)c34)ccc2c1,> 10,> 10,> 10,–,–,–,–,–,–,–,–,–,–,–
Nc1ncnc2c1c(-c1ccc3nc(OC4CC4)ccc3c1)nn2CC1CCOCC1,> 10,> 10,> 10,–,880,> 10,110,–,1.12,–,–,–,0.081,0.5
CN1CCC(Cn2nc(-c3ccc4cc(OC5CC5)ccc4c3)c3c(N)ncnc32)CC1,–,> 10,> 10,–,–,0.37,–,–,–,–,0.0015,–,–,–
CC(C)(CO)Cn1nc(-c2ccc3cc(OC4CC4)ccc3c2)c2c(N)ncnc21,> 10,> 10,3.1,–,390,> 10,6.7,–,0.517,–,–,–,0.056,–
Nc1ncnc2c1c(-c1ccc3cc(OC4CC4)ccc3c1)nn2CC1CCOCC1,> 10,> 10,0.37,–,–,> 10,–,–,–,–,0.0024,–,–,–
CCOc1ccc2cc(-c3nn(CC4CCN(C)CC4)c4ncnc(N)c34)ccc2n1,> 10,> 10,> 10,3.33,–,10,1.8,–,–,260,0.0061,3.72,–,–
Nc1ncnc2c1c(-c1ccc3cc(OC4CC4)ccc3c1)nn2CC(O)(C(F)(F)F)C(F)(F)F,> 10,> 10,> 10,–,–,–,–,–,–,–,–,–,–,–
CCOc1ccc2cc(-c3nn(CC4CNC4)c4ncnc(N)c34)ccc2c1,> 10,> 10,> 10,–,–,1.7,–,–,–,–,0.0032,–,–,–

# Continued, in another order:
GI50 at 48 h [4] [µM],GI50 at 48 h [5] [µM],IC50 [6] [µM],Compound,Tmax [1] [h],Cmax [2] [nM],IC50 [3] [µM],CL/F [7] [mL/min],solubility [8] [µM],AUC(0-inf) [9] [µM·h],Cmax [10] [nM],IC50 [11] [µM],half-life [12] [h],EC50 [13] [µM],Tmax [14] [h]
> 10,> 10,> 10,CN1CCC(Cn2nc(-c3ccc4cc(OC5COC5)ccc4c3)c3c(N)ncnc32)CC1,–,–,–,–,–,–,–,0.01,–,–,–
> 10,> 10,> 10,CN(C)CC(C)(C)Cn1nc(-c2ccc3nc(OC4CC4)ccc3c2)c2c(N)ncnc21,–,–,0.082,–,–,–,–,–,–,–,–
> 10,> 10,> 10,CCOc1ccc2cc(-c3nn(CC4CCN(C(C)C)CC4)c4ncnc(N)c34)ccc2c1,–,–,0.3,–,–,–,–,0.01,–,–,–
–,> 10,3.7,CC(C)Cn1nc(-c2ccc3cc(OC4CC4)ccc3c2)c2c(N)ncnc21,–,–,> 10,–,–,–,–,0.0011,–,–,–
> 10,> 10,> 10,CCOc1ccc2cc(-c3nn(CC(C)(C)O)c4ncnc(N)c34)ccc2c1,–,–,–,–,–,–,–,–,–,–,–
> 10,> 10,7.4,CC(C)(CO)Cn1nc(-c2ccc3nc(OC4CC4)ccc3c2)c2c(N)ncnc21,–,–,> 10,21,8,0.065,3900,–,0.683,–,–
> 10,–,> 10,CN1CCC(Cn2nc(-c3ccc4nc(OC5CC5)ccc4c3)c3c(N)ncnc32)CC1,–,–,1.7,–,–,–,–,–,–,–,–
> 10,> 10,> 10,CCOc1ccc2cc(-c3nn(CC4CCOCC4)c4ncnc(N)c34)ccc2c1,–,–,> 10,–,–,–,–,0.002,–,–,–
> 10,> 10,> 10,CC1(Cn2nc(-c3ccc4nc(OC5CC5)ccc4c3)c3c(N)ncnc32)COC1,–,–,> 10,–,–,–,–,–,–,–,–
> 10,> 10,> 10,CC(C)Cn1nc(-c2ccc3nc(OC4CC4)ccc3c2)c2c(N)ncnc21,–,–,> 10,–,–,–,–,–,–,–,–
> 10,> 10,> 10,CCOc1ccc2cc(-c3nn(CC4CN(C)C4)c4ncnc(N)c34)ccc2c1,–,–,1.4,–,–,–,–,0.006,–,–,–
> 10,> 10,> 10,CN1CCC(Cn2nc(-c3ccc4cc(OCC5CC5)ccc4c3)c3c(N)ncnc32)CC1,–,–,0.9,–,–,–,–,–,–,–,–
> 10,> 10,> 10,CCOc1ccc2cc(-c3nn(CC4CCOCC4)c4ncnc(N)c34)ccc2n1,–,–,> 10,–,–,–,–,–,–,–,–
> 10,> 10,1.1,CCOc1ccc2cc(-c3nn(CC4CN(C(C)=O)C4)c4ncnc(N)c34)ccc2c1,–,–,> 10,–,–,–,–,0.004,–,–,–
> 10,> 10,> 10,CCOc1ccc2cc(-c3nn(CC(C)C)c4ncnc(N)c34)ccc2c1,–,–,> 10,–,–,–,–,–,–,–,–
